The record followed here is ChEMBL document CHEMBL4043289, “Fragment-Based Drug Discovery of Inhibitors of Phosphopantetheine Adenylyltransferase from Gram-Negative Bacteria” (J Med Chem, 2018).

The nature of experiment [1]: Inhibition of Escherichia coli C-terminal His-tagged PPAT expressed in Escherichia coli using 4'-phosphopantetheine as substrate preincubated for 5 mins followed by substrate and pyrophosphatase addition measured after 30 mins by malachite green reagent-based colorimetric method.
The nature of experiment [2]: Inhibition of Pseudomonas aeruginosa C-terminal His-tagged PPAT expressed in Escherichia coli using 4'-phosphopantetheine as substrate preincubated for 5 mins followed by substrate and pyrophosphatase addition measured after 30 mins by malachite green reagent-based colorimetric method.

On to `CNC(=O)CC(Nc1nc2[nH]c(C)cc(=O)n2n1)c1cccc(Cl)c1` (configuration not stated), for which the IC50 came to 15 µM in experiment [1] and 10 µM in experiment [2]. Taken in the same sequence, the figures for `COCC[C@@H](Nc1nc2[nH]c(C)cc(=O)n2n1)c1cccc(Cl)c1` were 2.4 µM and 11 µM. As for `Cc1nc2ccccc2n1Cc1nc2c(O)cccc2[nH]1`, the IC50 is 23 µM in experiment [1] and 0.13 µM in experiment [2]. Taken in the same sequence, the figures for `Cc1cc(N)n2nc(N[C@H](C)c3cccc(Cl)c3)nc2n1` were 0.41 µM and 0.38 µM.

Take `C[C@@H](Nc1ccc2nccnc2n1)c1cccc(Cl)c1`: the IC50 in experiment [1] turned out to be 348 µM; in experiment [2], 271 µM. `Cc1ccc2sc(N[C@H](C)c3cccc(Cl)c3)nc2n1`: the results for the IC50 in experiment [1] and in experiment [2] were 0.41 µM and 2.3 µM, respectively. In the case of `Cc1cc(=O)n2nc(N[C@H](CO)c3cccc(Cl)c3)nc2[nH]1`, the results for the IC50 in experiment [1] and in experiment [2] were 0.55 µM and 0.66 µM, respectively. For `Oc1cccc2[nH]c(Cc3noc4ccccc34)nc12`, the IC50 in experiment [1] was 1 µM; in experiment [2], 2.7 µM. In the case of `Cc1cc(=O)n2nc(NCc3ccccc3)nc2[nH]1`, the IC50 in experiment [1] is 77 µM.

As for `CCc1cc(=O)n2nc(N[C@H](C)c3cccc(Cl)c3)nc2[nH]1`, the IC50 in experiment [1] came out at 0.9 µM; in experiment [2], 2.8 µM. Compound `Cc1cc(=O)n2nc(N[C@@H](C)c3ccccc3)nc2[nH]1` returned an IC50 in experiment [1] of 120 µM. Same read-out and setting: the same measure for `Cc1cc(=O)n2nc(NCc3cccc(Br)c3)nc2[nH]1`: 5.6 µM.

Consider `Oc1cccc2[nH]c(C3CCCN3c3cccc(Cl)c3)nc12` (configuration not stated), for which the IC50 in experiment [1] is 0.91 µM; in experiment [2], 34 µM. In the case of `Oc1cccc2[nH]c(COc3cccc(Cl)c3)nc12`, the half-maximal inhibitory concentration (IC50) in experiment [1] was 1.7 µM; in experiment [2] it was 14 µM. Taken in the same sequence, the figures for `Cc1cc(=O)n2nc(NC(CC(N)=O)c3cccc(Cl)c3)nc2[nH]1` (configuration not stated) were 0.45 µM and 0.83 µM. With `Cc1ccc2oc(N[C@H](C)c3cccc(Cl)c3)nc2n1`, the values for the concentration for half-maximal inhibition (IC50) in experiment [1] and in experiment [2] were 2.4 µM and 4.9 µM, respectively. In experiment [1], `NCc1ccc2ccnc(N)c2c1` registered an IC50 of 1080 µM. Regarding `Cc1ccn2nc(N[C@H](C)c3cccc(Cl)c3)nc2n1`, the IC50 in experiment [1] came out at 4.7 µM; in experiment [2], 2.6 µM. Taken in the same sequence, the figures for `CN1C(=O)CCC(c2nc3c(O)cccc3[nH]2)C1c1ccccc1` (configuration not stated) were 0.32 µM and 25 µM. Turning to `CC(=O)N1CCC[C@H]1c1nc2c(O)cccc2[nH]1`, the IC50 was 106 µM in experiment [1] and 1.9 µM in experiment [2]. The matching figures for `Cc1cc(=O)n2nc(N[C@H](COC(N)=O)c3cccc(Cl)c3)nc2[nH]1`: 0.25 µM and 3.9 µM. The matching figures for `COC(=O)CC(Nc1nc2[nH]c(C)cc(=O)n2n1)c1cccc(Cl)c1` (configuration not stated): 2.5 µM and 0.49 µM. With `Cc1[nH]c2nc(N[C@H](C)c3cccc(Cl)c3)nn2c(=O)c1C`, the IC50 in experiment [1] worked out at 1.1 µM; in experiment [2] it was 1.7 µM.

`Cc1cc(=O)n2nc(N[C@H](C)c3ccccc3)nc2[nH]1` showed an IC50 in experiment [1] of 6.4 µM. Still for that read-out and setting: the figure for `Cc1ccc2c(ncn2Cc2ccccc2)n1` is 19 µM. As to `Cc1cc(=O)n2nc(NC(CC(=O)O)c3cccc(Cl)c3)nc2[nH]1` (configuration not stated), the values for the IC50 in experiment [1] and in experiment [2] were 0.2 µM and 1.1 µM, respectively.

For `OCc1nc2c(O)cccc2[nH]1`, the IC50 was found to be 116 µM in experiment [1] and 108 µM in experiment [2]. Taken in the same sequence, the figures for `C[C@@H](Nc1ccc2[nH]cnc2n1)c1cccc(Cl)c1` were 401 µM and greater than 500 µM.

Compound `Cc1ccc2c(ncn2Cc2cccc(Cl)c2)n1` displayed an IC50 in experiment [1] of 4.3 µM. As for `CN1C(=O)C[C@H](c2nc3c(O)cccc3[nH]2)[C@H]1c1ccccc1` (relative stereo), the 50% inhibitory concentration (IC50) in experiment [1] amounted to 1 µM; in experiment [2], 11 µM. The matching figures for `O=C(O)c1cccc([C@H]2CCC[C@@H]2c2nc3c(O)cccc3[nH]2)c1` (relative stereo): 0.051 µM and 25 µM. The matching figures for `Cc1nc(N)n2nc(N[C@H](C)c3cccc(Cl)c3)nc2n1`: 5.9 µM and 4.6 µM.
